Measurements published in ChEMBL document CHEMBL1140182, “Modeling binding modes of alpha7 nicotinic acetylcholine receptor with ligands: the roles of Gln117 and other residues of the receptor in agonist binding” (J Med Chem, 2008).

Tests used:
[1] = biological target: T1, Neuronal acetylcholine receptor subunit alpha-7 (Homo sapiens, UniProt P36544); assay: Displacement of [125I]alpha-bungarotoxin from alpha7 nAChR
[2] = biological target: T1, Neuronal acetylcholine receptor subunit alpha-7; assay: Agonist activity at human cloned wild-type alpha7 nAChR expressed in Xenopus laevis oocytes assessed as channel opening by voltage clamp electrophysiology; assay type: functional, cell-based, Oocyte
[3] = Agonist activity at human cloned alpha7 nAChR Gln117Phe mutant expressed in Xenopus laevis oocytes assessed as channel opening by voltage clamp electrophysiology; assay type: functional, cell-based; settings: Oocyte

T1 sequence (P36544 whole entry): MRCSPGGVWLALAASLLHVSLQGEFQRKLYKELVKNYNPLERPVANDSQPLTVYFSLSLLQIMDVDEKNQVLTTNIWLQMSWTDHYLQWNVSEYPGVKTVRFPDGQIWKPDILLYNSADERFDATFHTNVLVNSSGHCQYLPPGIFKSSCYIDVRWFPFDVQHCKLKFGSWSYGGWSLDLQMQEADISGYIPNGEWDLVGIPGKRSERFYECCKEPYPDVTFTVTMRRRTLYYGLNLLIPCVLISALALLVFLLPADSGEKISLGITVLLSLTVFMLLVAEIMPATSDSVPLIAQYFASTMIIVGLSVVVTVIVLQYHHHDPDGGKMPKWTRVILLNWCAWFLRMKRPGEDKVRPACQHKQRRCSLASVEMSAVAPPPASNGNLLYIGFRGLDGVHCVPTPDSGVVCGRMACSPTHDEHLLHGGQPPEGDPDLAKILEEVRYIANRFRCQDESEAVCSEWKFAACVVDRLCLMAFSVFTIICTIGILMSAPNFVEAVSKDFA

Row | SMILES | Kd [1] | EC50 [2] | EC50 [3]
1 | CCN1C[C@@]2(CN3CCC2CC3)OC1=O | 0.69 µM | – | –
2 | O=C1NC[C@@]2(CN3CCC2CC3)O1 | 0.092 µM | 3.6 µM | 22.3 µM
3 | COc1ccc(/C=C2\CCCN=C2c2cccnc2)c(OC)c1 [GTS-21] | 0.158 µM | – | –
